US20190380957A1, “Protein Hydrogels For Treatment Of Neovascular Disease” (New Jersey Institute of Technology, priority 2018, published 2019)

How the values were obtained:
[1] = test system: human umbilical vein endothelial cells (HUVECs); assay: Tube formation assay; assay type: cell-based; conditions: positive control, 1.8 mM suramin in media
Description: To assay the anti-angiogenic effect of the self-assembled peptide on endothelial cells, tube formation assays were performed for a range of peptide concentrations. This assay captures the propensity of human ECs or HUVECs to form capillary-like tubules. The process is sensitive to the presence of anti-angiogenic compounds. HUVECs were seeded along with varying concentrations of SL-Kr5 solution on a basement membrane extract matrix to stimulate the formation of capillary tubules. The effects of the peptide on the HUVECs were characterized by measuring the extent of tube formation in terms of total length of tubules formed, number of segments, number of branches, number of junctions, number of nodes, and […] (FIGS. 8A-8F, FIGS. 9A-9D). […]
Tube Formation Assay: HUVECs (Lonza) were cultured in T75 flasks using an Endothelial Cell Growth Medium BulletKit (Lonza). […] The negative control was supplemented with 298 mM sucrose to match the corresponding highest quantity added to the test conditions, and the positive control contained 1.8 mM suramin. The 96-well plate was then incubated at 37° C. for 4 to 6 hours before imaging on a Nikon Instruments Eclipse Ti-S inverted fluorescence microscope. Tube length was quantified using NIH ImageJ software.

[2] = In vitro cytocompatibility (LIVE/DEAD viability/cytotoxicity kit); assay type: cell-based; conditions: mouse, NIH 3T3 fibroblasts; 800 μM SL-Kr5 in media, day 3; control 85-90%, p<0.05; read-out: viability of cells
Description: (§1) Cytocompatibility was determined by fibroblast cultures treated with increasing concentrations of the peptide in culture media.
(§2) In Vitro Cytocompatibility: NIH 3T3 fibroblasts were cultured in media (Dulbecco's Modified Eagle Medium supplemented with 10% fetal bovine serum and 1% 100× penicillin streptomycin) in T75 flasks. After the cells reached confluency, they were seeded in a 96-well plate at 2,500 cells/well. Three target conditions (800 μM, 80 μM, and […]; n=6) and a control (media with sucrose; n=6) were tested. For target conditions, the peptide was supplemented in the media, and for the media control, 298 mM sucrose (formulation carrier) was added. Media was changed daily and cytocompatibility was assessed on day 3 using a LIVE/DEAD® viability/cytotoxicity kit. Images were taken on a Nikon Instruments Eclipse Ti-S inverted fluorescence microscope, and cell viability was quantified using NIH ImageJ, a known image analysis and processing software program.

NIH 3T3 fibroblasts = assay: as above; assay type: cell-based; conditions: for cytocompatibility compared to the media+sucrose control: day 3
Description: as §1, §2

Female Wistar rats = assay: In vivo subcutaneous implantation, histology; set-up: species or system rat; conditions: 200 μL SC implant
[3] = cited from earlier work
[4] = target: GRP78 (glucose-regulated protein 78) (Homo sapiens, UniProt P11021); conditions: previously shown; cited from earlier work
endothelial cells = conditions: previously shown; cited from earlier work

Sequence of GRP78 (glucose-regulated protein 78) (P11021 19-654, species assumed): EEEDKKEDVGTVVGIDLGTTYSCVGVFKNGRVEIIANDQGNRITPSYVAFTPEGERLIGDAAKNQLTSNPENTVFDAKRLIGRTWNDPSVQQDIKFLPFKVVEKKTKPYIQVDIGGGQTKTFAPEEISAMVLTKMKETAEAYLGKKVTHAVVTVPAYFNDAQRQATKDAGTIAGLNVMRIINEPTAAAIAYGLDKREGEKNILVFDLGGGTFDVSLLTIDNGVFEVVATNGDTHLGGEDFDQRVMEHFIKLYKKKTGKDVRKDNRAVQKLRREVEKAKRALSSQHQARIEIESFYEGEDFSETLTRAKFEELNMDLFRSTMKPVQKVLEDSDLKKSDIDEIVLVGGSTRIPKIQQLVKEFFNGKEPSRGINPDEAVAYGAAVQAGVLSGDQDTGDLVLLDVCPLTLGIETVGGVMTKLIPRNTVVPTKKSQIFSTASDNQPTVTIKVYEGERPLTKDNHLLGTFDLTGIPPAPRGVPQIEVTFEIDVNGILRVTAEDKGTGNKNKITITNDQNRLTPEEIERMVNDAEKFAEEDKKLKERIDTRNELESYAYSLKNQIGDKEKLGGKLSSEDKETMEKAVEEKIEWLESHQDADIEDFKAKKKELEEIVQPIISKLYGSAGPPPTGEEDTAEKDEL

Molecule: Cc1ccc(C(=O)Nc2ccc(S(=O)(=O)O)c3cc(S(=O)(=O)O)cc(S(=O)(=O)O)c23)cc1NC(=O)c1cccc(NC(=O)Nc2cccc(C(=O)Nc3cc(C(=O)Nc4ccc(S(=O)(=O)O)c5cc(S(=O)(=O)O)cc(S(=O)(=O)O)c45)ccc3C)c2)c1 [suramin]
- EC tube formation [1]: inhibited

Molecule: Ac-KSLSLSLSLSLSLKGPRKLYDY-NH2 [SL-Kr5, K-(SL)6-K-G-PRKLYDY]
- viability at 72 h, 800 µM [2]: 55%
- cytocompatibility compared to the media+sucrose control (NIH 3T3 fibroblasts; 8 μM SL-Kr5 in media): little to no difference
- cytocompatibility compared to the media+sucrose control (NIH 3T3 fibroblasts; 80 μM SL-Kr5 in media): little to no difference
- non-specific toxicity in stromal cells (NIH 3T3 fibroblasts; fibroblast cultures, increasing peptide concentrations): did not induce non-specific toxicity
- cellular proliferation versus controls (NIH 3T3 fibroblasts; over a range of concentrations): comparable cellular proliferation to controls
- fibrous capsule (Female Wistar rats): no fibrous capsule apparent

Molecule: K2(SL)6K2
- basal level of angiogenesis ([3]; no VEGF mimic): strong basal level of angiogenesis
- in vivo biodegradation time ([3]; slow biodegradation): 6 weeks

Molecule: PRKLYDY (Kr5)
- attachment to GRP78 [4]: can attach
- apoptosis of endothelial cells (endothelial cells): induce apoptosis
